Data published in patent US11771709B2, “ALK protein degradation agent and anti-tumor application thereof” (ShanghaiTech University, priority 2017, dated 2023).
Like-named read-outs stand apart in the source and are kept apart here.

Columns and labels:
Ba/F3 (EML4-ALK/L1196M) = biological target: T1, Ba/F3 (EML4-ALK/L1196M) (Homo sapiens, UniProt Q9UM73, L1196M, cells depend on it); assay: Growth inhibition IC50 in Ba/F3 cells expressing EML4-ALK L1196M; assay type: cell-based
T1 construct: Q9HC35 (Echinoderm microtubule-associated protein-like 4)
Experimental: (§1) Cells were seeded at specific density in 96 well plates one day before treatment. […] Viable cells were measured via CCK8 reagent and IC50s were calculated via Prism Graphad. Experiments were repeated at least three times.

[1] = tested on: ALK positive non-small cell lung cancer; details: patients; cited from earlier work
SR (NPM-ALK) cells = assay: Growth inhibition IC50 in ALCL SR cells (CCK8/WST, 72 hours); assay type: cell-based; details: SR cells, WST, Brigatinib-based PROTAD molecules (Table 3)
Experimental: (§2) SR (NPM-ALK) and NCI-H2228 (EML4-ALK, V3) cells were purchased from ATCC. […] All Cells were cultured in RPMI1640 medium with 10% FBS and Penicillin-Streptomycin in 37° C. incubator with 5% CO2.
as §1

[2] = tested on: SW48 cell line (EGFR G719S); assay: Growth inhibition IC50 in EGFR G719S colorectal cancer cell line SW48; assay type: cell-based; details: Homo sapiens, CTG, n = 2, read-out: Half Inhibitory Concentration (IC50) Mean
Experimental: as §1

Ba/F3 (EML4-ALK/C1156Y) = biological target: T2, Ba/F3 (EML4-ALK/C1156Y) (Homo sapiens, UniProt Q9UM73, C1156Y, cells depend on it); assay: Growth inhibition IC50 in Ba/F3 cells expressing EML4-ALK C1156Y; assay type: cell-based
T2 construct: Q9HC35 (Echinoderm microtubule-associated protein-like 4)
Experimental: as §1

[3] = tested on: U118MG cells (FIG-ROS1 gene fusion); assay: Growth inhibition IC50 in ROS1 mutant glioblastoma cell line U118MG (72 hours); assay type: cell-based; details: Homo sapiens, U-118-MG
[4] = tested on: PC9 (EGFR, exon 19 del) cells; assay: Growth inhibition IC50 in EGFR mutant lung adenocarcinoma PC9 cells; assay type: cell-based; details: Homo sapiens
Experimental: as §2, §1

[5] = tested on: NCI-H2228 (EML4-ALK, V3) cells; assay: Growth inhibition IC50 in lung adenocarcinoma H2228 cells (WST); assay type: cell-based; details: Homo sapiens, WST (Table 3)
Description: Experiments were repeated at least three times.
Besides above, we also tested the dosage-dependent effects on the growth inhibition in H2228 cells. […] (Table 3).

[6] = tested on: PC9Brc1 (EGFR, exon 19 del+T790M) cells; assay: Growth inhibition IC50 in EGFR mutant lung cancer PC9Brc1 cells; assay type: cell-based; details: CTB, n ≥ 3, read-out: Half Inhibitory Concentration (IC50) Mean
Experimental: as §2, §1

[7] = biological target: T3, ALK protein in SR (NPM-ALK) cells (Homo sapiens, UniProt Q9UM73); assay: Western blot of ALK protein level (degradation, DC50), ALK phosphorylation and downstream signaling in SR cells; assay type: cell-based; details: for ALK protein degradation: 16 hours, up to 500 nM; for DC50: ALK protein degradation in SR cells
T3 construct: NPM (nucleophosmin, NPM1, P06748) fusion partner; host or cells: SR (ALCL) cells; the other entry of the earlier key: NPM1 (P06748, Nucleophosmin)
Experimental: Cancer cells were seeded in 1 ml RPMI1640 medium in 24-well plate at the density of 3×10^5 or 1.5×10^5 cells/ml. […] Then cells were washed twice with PBS and lyzed in RIPA lysis buffer with Halt Proteinase and Phosphotase inhibitor. Equal amount of proteins were loaded to run SDS-PAGE gels after denature. The gels were blotted to PVDF membrane. After incubating with first and secondary antibodies, the images were developed using SuperSignal West Pico Chemiluminescent Substrate.
DC50 (concentration required to degrade protein by half) were calculated based on the intensity from western blot, and data were analyzed via Prism GraphPad with non-linear regression.

MOLM13 cells (FLT3-ITD) = assay: Growth inhibition IC50 in FLT3-ITD AML cell line MOLM13; assay type: cell-based; details: Homo sapiens
Experimental: as §1

[8] = biological target: T4, ALK protein in H3122 (EML4-ALK) cells (Homo sapiens, UniProt Q9UM73); assay: Western blot of ALK protein level (degradation, DC50), ALK phosphorylation and downstream signaling in H3122 cells; assay type: cell-based; details: ALK protein degradation in H3122 cells
T4 construct: EML4 (Echinoderm microtubule-associated protein-like 4, Q9HC35) fusion partner, variant 1; host or cells: NCI-H3122 lung adenocarcinoma cells; the other entry of the earlier key: EML4 (Q9HC35, Echinoderm microtubule-associated protein-like 4)

[9] = Pharmacokinetics (PK) study in SD rat (IV, IP, PO; LC-MS/MS); assay type: in vivo; details: Sprague-Dawley, serum; for clearance: read-out: clearance rate, mean value
Experimental: SD rat were used to study the PK of ALK PROTAD compounds. ALK PROTAD compounds SIAIS164008, SIAIS164018, SIAIS164023 and SIAIS151118 were administrated into SD rat via three different routes: IV (Intravenous Injection), IP (Intraperitoneal Injection) and PO ([…]). Blood samples at different sampling time points up to 24 hours post dosing were collected from each animal and analyzed with LC-MS/MS to calculate the PK for each chemical.

Ba/F3 (EML4-ALK/WT) = biological target: T5, Ba/F3 (EML4-ALK/WT) (Homo sapiens, UniProt Q9UM73); assay: Growth inhibition IC50 in Ba/F3 cells expressing EML4-ALK wild type; assay type: cell-based
T5 construct: Q9HC35 (Echinoderm microtubule-associated protein-like 4)
Experimental: as §1

[10] = tested on: ALK protein in H2228 (EML4-ALK) cells; assay: Western blot of ALK protein level, ALK phosphorylation and downstream signaling in H2228 cells; assay type: cell-based
Experimental: Cancer cells were seeded in 1 ml RPMI1640 medium in 24-well plate at the density of 3×10^5 or 1.5×10^5 cells/ml. The next day cells were treated with different concentration of drugs for 16 hours. Then cells were washed twice with PBS and lyzed in RIPA lysis buffer with Halt Proteinase and Phosphotase inhibitor. Equal amount of proteins were loaded to run SDS-PAGE gels after denature. The gels were blotted to PVDF membrane. After incubating with first and secondary antibodies, the images were developed using SuperSignal West Pico Chemiluminescent Substrate.
The effect of Brigtinib based PROTAD molecules on the ALK protein total level were studied by western blot in ALCL SR (NPM-ALK) cell line and lung adenocarcinoma cell line H2228 and H3122 (EML4-ALK).
The effects of compounds SIAIS164008 and SIAIS164018 of the present invention on the activation of ALK mediated signaling pathways were also studied in SR cells and H2228 cells. […] The overall effect of compound of SIAIS164018 was better than that of SIAIS164008.

ALK protein in SR cells = biological target: T6, ALK protein in SR cells (Homo sapiens, UniProt Q9UM73); assay: Block of ALK degradation by proteosome inhibitors MG132 and MLN4924 in SR cells; assay type: cell-based
T6 construct: NPM (nucleophosmin, NPM1, P06748) fusion partner; host or cells: SR (ALCL) cells; the other entry of the earlier key: NPM1 (P06748, Nucleophosmin)
Description: To further validate the degradation effect act through proteosome mediated pathway, we also treated cells with two different proteosome inhibitors MG132 and MLN4924 to block protein degradation (FIG. 16).

[11] = IP, 2 mg/kg, read-out: serum half-life (converted)
[12] = IP, 2 mg/kg, read-out: time to maximal serum peak level (Tmax)
[13] = IV, single dose 2 mg/kg, read-out: serum clearance half-life (converted)
[14] = PO, 10 mg/kg, read-out: serum half-life (converted)
[15] = U118MG cells, 72 hours, n = 2, reagent CTG, read-out: Half Inhibitory Concentration (IC50) Mean
[16] = MOLM-13, MOLM13 cells, n = 2, reagent CTG, read-out: Half Inhibitory Concentration (IC50) Mean
[17] = PC-9, PC9 cells, CTB, n ≥ 3, read-out: Half Inhibitory Concentration (IC50) Mean

COc1cc(N2CCC(N3CCN(C)CC3)CC2)ccc1Nc1ncc(Cl)c(Nc2ccccc2P(C)(C)=O)n1 [Brigatinib, reference compound]
GI50 (Ba/F3 (EML4-ALK/L1196M)): 35.9 nM
disease control rate [1]: about 86%
response rate [1]: 55%
IC50 (SR (NPM-ALK) cells; 72 hours): 2.8 nM
IC50 [2]: 2720 nM
GI50 (Ba/F3 (EML4-ALK/C1156Y)): 36.8 nM
IC50 ([3]; 72 h): ~6800 nM
IC50 ([3]; 72 h, read-out: Half Inhibitory Concentration (IC50) Mean): 6800 nM
IC50 ([4]; PC-9, read-out: Half Inhibitory Concentration (IC50) Mean): 102 nM
IC50 [5]: 45.2 nM
IC50 [6]: 246 nM
ALK protein levels, time- and dose-dependence ([7]; SR cells, 30 nM to 300 uM, 4-24 hours): did not affect ALK protein levels
ALK protein degradation ([7]; SR cells, western blot): did not degrade ALK proteins
IC50 (MOLM13 cells (FLT3-ITD); MOLM-13): ~152 nM
IC50 (MOLM13 cells (FLT3-ITD); MOLM-13, read-out: Half Inhibitory Concentration (IC50) Mean): 152 nM

COc1cc(N2CCC(NC(=O)CCCNc3cccc4c3C(=O)N(C3CCC(=O)NC3=O)C4=O)CC2)ccc1Nc1ncc(Cl)c(Nc2ccccc2P(C)(C)=O)n1 (centres unmarked) [SIAIS151118, N-(1-(4-((5-chloro-4-((2-(dimethylphosphoryl)phenyl)amino)pyrimidin-2-yl)amino)-3-methoxyphenyl)piperidin-4-yl)-4-((2-(2,6-dioxopiperidin-3-yl)-1,3-dioxoisoindolin-4-yl)amino)butanamide]
GI50 (Ba/F3 (EML4-ALK/L1196M)): 146 nM
IC50 (SR (NPM-ALK) cells; 72 h): 0.9 ± 0.2 nM
IC50 [2]: 1920 nM
DC50 [8]: 1 to 50 nM
bioavailability ([9]; IP, 2 mg/kg): 225%
half-life [9, 11]: 3.27 h
Tmax [9, 12]: ~1.67 h
clearance ([9]; IV, single dose 2 mg/kg): ~6.35 mL/min/kg
half-life [9, 13]: ~4.73 h
bioavailability ([9]; PO, 10 mg/kg): 36%
Tmax ([9]; PO, 10 mg/kg, read-out: Tmax): 3.33 h
half-life [9, 14]: 4.66 h
GI50 (Ba/F3 (EML4-ALK/WT)): 92 nM
GI50 (Ba/F3 (EML4-ALK/C1156Y)): 129 nM
IC50 [3, 15]: 4260 nM
IC50 [5]: 346 nM
DC50 [7]: 1 to 10 nM
IC50 (MOLM13 cells (FLT3-ITD); [16]): 101 nM
IC50 (MOLM13 cells (FLT3-ITD); MOLM-13, MOLM13 cells, read-out: IC50): 101 nM

COc1cc(N2CCC(N3CCN(C(=O)CCOCCOCCNc4cccc5c4C(=O)N(C4CCC(=O)NC4=O)C5=O)CC3)CC2)ccc1Nc1ncc(Cl)c(Nc2ccccc2P(C)(C)=O)n1 (centres unmarked) [SIAIS164008, 4-((2-(2-(3-(4-(1-(4-((5-chloro-4-((2-(dimethylphosphoryl)phenyl)amino)pyrimidin-2-yl)amino)-3-methoxyphenyl)piperidin-4-yl)piperazin-1-yl)-3-oxopropoxy)ethoxy)ethyl)amino)-2-(2,6-dioxopiperidin-3-yl)isoindoline-1,3-dione]
GI50 (Ba/F3 (EML4-ALK/L1196M)): 376 nM
IC50 (SR (NPM-ALK) cells; 72 h): 3.6 ± 2.1 nM
IC50 [2]: 15200 nM
DC50 [8]: 10 to 50 nM
bioavailability ([9]; IP, 2 mg/kg): 93%
half-life [9, 11]: 1.54 h
Tmax [9, 12]: ~0.42 h
clearance ([9]; IV, single dose 2 mg/kg): ~414 mL/min/kg
half-life [9, 13]: ~0.85 h
bioavailability ([9]; PO, 10 mg/kg): 14.9%
Tmax ([9]; PO, 10 mg/kg, read-out: Tmax): 2.75 h
half-life [9, 14]: 3.98 h
GI50 (Ba/F3 (EML4-ALK/WT)): 115 nM
GI50 (Ba/F3 (EML4-ALK/C1156Y)): 243 nM
IC50 [3, 15]: 3520 nM
IC50 ([3]; U118MG cells, 72 hours, read-out: IC50): ~3520 nM
IC50 [4, 17]: 265 nM
IC50 [5]: 74 nM
IC50 [6]: 1830 nM
DC50 [7]: 1 to 10 nM
concentration inhibiting the phosphorylation of ALK proteins ([7]; SR cells, western blot): 0.1 nM
downstream signaling pathway (PI3K/AKT, MEK/ERK and STAT3) ([7]; SR cells, western blot): significantly inhibited
ALK protein degradation ([7]; SR cells, western blot): effectively degrade ALK proteins at nano mole concentration
IC50 (MOLM13 cells (FLT3-ITD); [16]): 392 nM
phosphorylation of ALK protein and activation of PI3K/AKT pathway [10]: inhibited

COc1cc(N2CCC(N3CCN(C(=O)CCCCCCNc4cccc5c4C(=O)N(C4CCC(=O)NC4=O)C5=O)CC3)CC2)ccc1Nc1ncc(Cl)c(Nc2ccccc2P(C)(C)=O)n1 (centres unmarked) [SIAIS164023, 4-((7-(4-(1-(4-((5-chloro-4-((2-(dimethylphosphoryl)phenyl)amino)pyrimidin-2-yl)amino)-3-methoxyphenyl)piperidin-4-yl)piperazin-1-yl)-7-oxoheptyl)amino)-2-(2,6-dioxopiperidin-3-yl)isoindoline-1,3-dione]
GI50 (Ba/F3 (EML4-ALK/L1196M)): 75.8 nM
IC50 (SR (NPM-ALK) cells; 72 h): 4.8 ± 2.7 nM
DC50 [8]: 1 to 10 nM
bioavailability ([9]; IP, 2 mg/kg): 122%
half-life [9, 11]: 1.62 h
Tmax [9, 12]: ~2 h
clearance ([9]; IV, single dose 2 mg/kg): ~88.2 mL/min/kg
half-life [9, 13]: ~7.71 h
bioavailability ([9]; PO, 10 mg/kg): 34.4%
Tmax ([9]; PO, 10 mg/kg, read-out: Tmax): 3.33 h
half-life [9, 14]: 2.13 h
GI50 (Ba/F3 (EML4-ALK/WT)): 33.6 nM
GI50 (Ba/F3 (EML4-ALK/C1156Y)): 47.5 nM
IC50 [4, 17]: 379 nM
IC50 [5]: 15.5 nM
IC50 [6]: 870 nM
DC50 [7]: 0.5 to 10 nM

COc1cc(N2CCC(N3CCN(C(=O)CNc4cccc5c4C(=O)N(C4CCC(=O)N(C)C4=O)C5=O)CC3)CC2)ccc1Nc1ncc(Cl)c(Nc2ccccc2P(C)(C)=O)n1 (centres unmarked) [SIAIS1210003, 4-((2-(4-(1-(4-((5-chloro-4-((2-(dimethylphosphoryl)phenyl)amino)pyrimidin-2-yl)amino)-3-methoxyphenyl)piperidin-4-yl)piperazin-1-yl)-2-oxoethyl)amino)-2-(1-methyl-2,6-dioxopiperidin-3-yl)isoindoline-1,3-dione]
reduction of ALK protein level and its block by MG132 and MLN4924 (ALK protein in SR cells): no such effect
